Assays:
[1] = rats, intravenous 200 mg/kg for a month; cited from earlier work
[2] = room temperature; cited from earlier work
[3] = tested on: xenografts of human LC-derived cell lines; conditions: Rowett nude rat, systemic intraperitoneal injection, reference 29; cited from earlier work
[4] = tested on: PD-L1; conditions: LC cell lines, in vitro; cited from earlier work
[5] = Pharmacokinetics study of systemic, inhaled aqueous and inhaled dry powder 5AZA, with and without THU; format: in vivo, Sprague Dawley rat; conditions: THU 80 mg/kg oral
Method: The 5AZA aerosol was delivered into the lungs of rats using a nose only inhalation delivery system in which a 5AZA dry powder formulation and a 5AZA aqueous formulation aerosol is generated with a rotating brush generator or Pari nebulizer, respectively. […] At each time-point, systemic blood was collected into K3EDTA tubes for separation into plasma and lung, liver, and brain tissue was snap frozen in liquid nitrogen. Plasma and lung tissue samples were assayed via a liquid chromatography mass spectrometry assay and the average concentration versus time profile modeled with non-compartmental analysis.

In the case of `C[S+](C)[O-]` [DMSO], the toxicity [1] is listed as “no toxicity”.

For `Nc1ncn([C@H]2C[C@H](O)[C@@H](CO)O2)c(=O)n1` [DAC, 5-aza-2′-deoxyazacytidine], the “stability in aqueous solution” value [2] is given as “relatively unstable”.

In the case of `Nc1ncn([C@@H]2O[C@H](CO)[C@@H](O)[C@H]2O)c(=O)n1` [5AZA, 4-amino-1-β-D-ribofuranosyl-1,3,5-triazin-2(1H)-one], the “reduction of tumor burden / suppression of tumor growth” value [3] is given as 31% and the “expression of PD-L1” value [4] is given as “increased”.

In the case of `O=C1NC(O)CCN1[C@@H]1O[C@H](CO)[C@@H](O)[C@H]1O` (stereo partly drawn) [THU, tetrahydrouridine], the “effect of addition of THU on PK profile of the dry powder formulation in brain” value [5] is reported as “greatly improved” and the “effect of addition of THU on lung PK of 5AZA” value [5] is reported as “did not influence”.
